Measured values taken from US20240241113A1, “Method for detecting binding to an ADP-ribosyl group or a polymer thereof and a kit for performing said method” (priority 2021, published 2024).
pIC50: −log10 of the molar value.

Tests used:
[1] = molecular target: T1, SARS-CoV-2 nsp3 macrodomain (Severe acute respiratory syndrome coronavirus 2, UniProt P0DTD1); experiment: Validation of suramin binding by DSF; conditions: 5 μM macrodomain without tags, suramin 10 μM, 50 μM, 100 μM or 1 mM
Protocol: The SARS-CoV-2 nsp3 macrodomain without tags was diluted to 5 μM in 10 mM HEPES pH 7.5, 25 mM NaCl, 0.5 mM TCEP buffer and mixed with 5×SYPRO Orange. Samples were prepared with 10 μM, 50 μM, 100 μM or 1 mM of suramin. […] Samples were transferred to 96-well qPCR plates. Measurement was performed in a BioRad C1000 CFX96 thermal cycler. Data points for melting curves were recorded in 1 min intervals from 20-95° C., with the temperature increasing by 1° C./min. The analysis of the data was done in GraphPad Prism 7 using a nonlinear regression analysis (Boltzmann sigmoid equation) of normalized data.

[2] = test system: viral and human ADP-ribose readers and erasers; experiment: FRET inhibition profile against ADP-ribosyl binders with YFP-GAP(MAR) or YFP-GAP(PAR); format: binding; conditions: 10 μM suramin; many of the proteins tested; ratiometric FRET
Protocol: (§1) The experiments were carried out in assay buffer (10 mM Bis-Tris-Propane pH 7.0, 3% (w/v) PEG20,000, 0.01% (v/v) Triton X-100 and 0.5 mM TCEP) in 10 μl volume per well unless stated otherwise.

SARS-CoV2 = conditions: cell-culture based models; reported; cited from earlier work
[3] = molecular target: T1, SARS-CoV-2 nsp3 macrodomain; experiment: FRET-based binding assay, CFP-SARS-CoV-2 nsp3 macrodomain with MARylated YFP-Gαi
Protocol: as §1
For the screening, 40 nl of 10 mM compound stocks dissolved in DMSO from the FDA-approved drug library (Enzo Life Sciences) were transferred to 384-well black low-volume polypropylene plates (Fisherbrand). The sample mixture containing 1 μM CFP-SARS-CoV-2 nsp3 macrodomain and 5 μM MARylated YFP-Gαi was prepared in assay buffer (10 mM Bis-Tris-Propane pH 7.0, 3% (w/v) PEG20,000, 0.01% (v/v) Triton X-100 and 0.5 mM TCEP) and 20 μl per well were dispensed using Mantis (Formulatrix). The rFRET signal was determined after 5 minute incubation time.

CFP-ALC1 (human) = CFP-ALC1 (human) (UniProt Q86WJ1); experiment: FRET competition: 250 nM CFP-ALC1 + 500 nM YFP-GAP(PAR), PARylated PARP2 varied; displaced ligand YFP-GAP(PAR) [e]
CFP-ALC1 (human), sequence (Q86WJ1 616-878 limits assumed): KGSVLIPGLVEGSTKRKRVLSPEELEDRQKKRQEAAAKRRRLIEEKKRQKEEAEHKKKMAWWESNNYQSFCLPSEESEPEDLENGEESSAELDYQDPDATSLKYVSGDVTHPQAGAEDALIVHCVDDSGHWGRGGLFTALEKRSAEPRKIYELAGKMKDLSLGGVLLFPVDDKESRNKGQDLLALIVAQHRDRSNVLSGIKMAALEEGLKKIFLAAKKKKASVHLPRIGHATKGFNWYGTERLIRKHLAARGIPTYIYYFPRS

| Compound | stabilization of the protein by DSF [1] | stabilization of the protein by DSF ([1]; listed as Suramin) | inhibition of viral and human ADP-ribose readers and erasers [2] | inhibition of SARS-CoV2 infection (SARS-CoV2) | inhibition at 20 µM ([3]; 20 μM compound, 1 μM CFP-SARS-CoV-2 nsp3 macrodomain, 5 μM MARylated YFP-Gαi, rFRET, read-out: inhibition in screen of ENZO FDA-approved drug library) [%] | pIC50 ([3]; FRET-based assay, dose-response curve, read-out: IC50 against the SARS-CoV-2 nsp3 macrodomain) | IC50 (read off the curve) (CFP-ALC1 (human)) [µM] |
| --- | --- | --- | --- | --- | --- | --- | --- |
| Cc1ccc(C(=O)Nc2ccc(S(=O)(=O)O)c3cc(S(=O)(=O)O)cc(S(=O)(=O)O)c23)cc1NC(=O)c1cccc(NC(=O)Nc2cccc(C(=O)Nc3cc(C(=O)Nc4ccc(S(=O)(=O)O)c5cc(S(=O)(=O)O)cc(S(=O)(=O)O)c45)ccc3C)c2)c1 [suramin] | stabilization of the protein in a concentration dependent manner | stabilization | strong inhibition | inhibit | 82 | 5.06 |  |
| PARylated PARP2 (from UniProt Q9UGN5 90-583) (enzyme) |  |  |  |  |  |  | 0.03 |
